What was measured:
[1] = test system: IκB; test: Western blot, NF-κB signaling pathway: IκB; type: cell-based, human; conditions: HCT116, 2.5, 5 and 10 μM, 24 h
Text: The NF-κB pathway plays an important role in a variety of cellular functions, including cell growth, apoptosis, and tumorigenesis ([Hwang et al., 2012]). Interfering with NF-κB signaling can inhibit tumor cell proliferation and metastasis ([Yenmis et al., 2021]). Therefore, NF-κB inhibitors are considered as potential anticancer drugs ([Wang et al., 2017]).
(§1) FIGURE 8 Effect of compound E on NF-κB signaling pathway in HCT116 cells. Cells were pretreated with the various concentrations of compound E (2.5, 5 and 10 μM) for 24 h. The expression of phospho-NF-κB p65, NF-κB p65, phospho-IκB, IκB were analyzed by Western blot. ***p < 0.001, **p < 0.01, *p < 0.05 vs. control group. The error bars represent the mean ± SD for three independent experiments.
(§2) HCT116 cells were cultured with different concentrations of compound E for 24 h. Then, the floating cells were collected and washed twice with ice-cold PBS. Add cold RIPA buffer. After the cells were lysed on ice for 20 min, the lysate was centrifuged at 12,000 rpm for 15 min at 4°C. The BCA method determines the protein concentration. Separated by SDS/PAGE electrophoresis and transferred to a nitrocellulose filter membrane for Western blot analysis. The membrane was blocked with PBS containing 5% skim milk at room temperature for 2 h. […] The protein is detected by electrochemiluminescence (Bio-Rad, CA, United State).

[2] = test system: Bax; test: Western blot, Bax expression; type: cell-based, human; conditions: HCT116, 10 μM, 24 h
Procedure: The Bcl-2 protein family (including the anti-apoptotic protein Bcl-2 and the pro-apoptotic protein Bax) is a group of key apoptotic proteins that play an important role in the regulation of apoptosis ([Han et al., 2013]; [Zhang and Saghatelian, 2013]; [Zheng et al., 2021]). HCT116 cells were treated with different concentrations (2.5, 5, and 10 μM) of E to detect the expression of Bax and Bcl-2 proteins.
as §1, with “7” for “8”, “the levels of Bax, and Bcl-2” for “NF-κB signaling pathway”, “Bax, and Bcl-2” for “phospho-NF-κB p65, NF-κB p65, phospho-IκB, IκB”
as §2

[3] = test system: p38; test: Western blot, MAPK signaling pathway: p38; type: cell-based, human; conditions: HCT116, 10 μM, 24 h
Text: (§3) Extracellular signal-regulated kinases are the most closely related MAPK. MAPK, a family of serine/threonine protein kinases, is also an important transmitter of signaling from the cell surface to the nucleus, and it is involved in the regulation of many physiological processes, including apoptosis ([Bian et al., 2021]). The MAPK pathway has been implicated in regulating tumor angiogenesis, proliferation, metastasis and invasion ([Ko et al., 2017]). MAPK family is mainly composed of ERK, p38 and JNK subfamily.
as §1, with “9” for “8”, “phospho-ERK, ERK, phospho-JNK, JNK, phospho-p38, p38” for “phospho-NF-κB p65, NF-κB p65, phospho-IκB, IκB”
(§4) HCT116 cells were cultured with different concentrations of compound E for 24 h. Then, the floating cells were collected and washed twice with ice-cold PBS. Add cold RIPA buffer. After the cells were lysed on ice for 20 min, the lysate was centrifuged at 12,000 rpm for 15 min at 4°C. The BCA method determines the protein concentration. […] The protein is detected by electrochemiluminescence (Bio-Rad, CA, United State).

[4] = test system: SW620 (human colorectal cancer cell line); test: MTT anti-proliferative assay, SW620; type: cell-based; conditions: means ± SD, n = 3
[5] = test system: ERK; test: Western blot, MAPK signaling pathway: ERK; type: cell-based, human; conditions: HCT116, 10 μM, 24 h
Text: as §3
as §1, with “9” for “8”, “phospho-ERK, ERK, phospho-JNK, JNK, phospho-p38, p38” for “phospho-NF-κB p65, NF-κB p65, phospho-IκB, IκB”
as §4

[6] = test system: MCF-7 (human breast cancer cell line); test: MTT anti-proliferative assay, MCF-7; type: cell-based; conditions: means ± SD, n = 3
How it was run: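 Cells seeded at 1 × 10^4–1.2 × 10^4 per well were allowed to adhere 24 h, then exposed 48 h at 37 °C, 5% CO2 to compound at 1.25, 2.5, 5 and 10 μM (DMSO ≤0.1%). MCF-7 and HepG2 were grown in DMEM, HCT116 and BEL7402 in RPMI 1640, each with 10% FBS. MTT (final 2 mg/ml) was added for 4 h; formazan was dissolved in DMSO and read at 492 nm.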

IC50 values SW620 ([4]; 48 h incubation): strong activity | IC50 ([4]; Homo sapiens, SW-620, 48 h incubation): 4.69 ± 1.1 µM | IC50 values MCF-7 ([6]; 48 h incubation): strong activity | IC50 ([6]; Homo sapiens, MCF7, 48 h incubation): 7.59 ± 1.78 µM
SMILES: CC1(C)CC[C@]2(C(=O)OCCn3nnnc3-c3ccccc3)[C@H](O)C[C@]3(C)C(=CC[C@@H]4[C@@]5(C)CC[C@H](O)[C@@](C)(C=O)[C@@H]5CC[C@]43C)[C@@H]2C1 [Compound E, 2-(5-phenyl-1H-tetrazol-1-yl)ethyl (4aR,5R,6aS,6bR,8aR,9S,10S,12aR,12bR,14bS)-9-formyl-5,10-dihydroxy-2,2,6a,6b,9,12a-hexamethyl-1,3,4,5,6,6a,6b,7,8,8a,9,10,11,12,12a,12b,13,14b-octadecahydropicene-4a (2H)-carboxylate]
phosphorylation and degradation of IκB [1]: inhibited the phosphorylation and degradation of IκB | expression of Bax [2]: significantly increased | phosphorylation level of p38 [3]: down-regulated | phosphorylation level of ERK [5]: down-regulated

Reference: PMC9490060, “Synthesis and evaluation of anticancer activity of quillaic acid derivatives: A cell cycle arrest and apoptosis inducer through NF-κB and MAPK pathways” (Frontiers in Chemistry, 2022)
